Legend:
[1] = In vitro stability in human plasma; assay type: in vitro ADME; conditions: 37° C., 2000 ng/mL, over 24 hours
Protocol: (§1) An in vitro stability study in human whole blood and plasma is carried out over 24 hours at 37° C. Drug-free freshly collected human blood (CPD—citrate-phosphate-dextrose is used for all blood collections as anticoagulant) and plasma are spiked with a previously prepared standard solution of test compound to a final concentration of 2000 ng/mL. For each compound blood and plasma are spiked in duplicate and incubated for 24 hours. Two separate aliquots of blood or plasma (50 μL) are sampled from each incubation mixture at 0, 15, 30, 60, 120, 240 and 1440 minutes. All aliquots are mixed with an equal volume of water (50 μL) and extracted with 300 μL of acetonitrile/methanol (2:1) containing internal standard (roxithromycin). The samples are then vortexed, centrifuged and analysed by LC/MS/MS (MRM mode). Results are expressed as the percentage of compound remaining, expressed as the ratio of analyte/internal standard.

[2] = test system: Lung neutrophilia induced by bacterial lipopolysaccharide (LPS); assay: Lung neutrophilia induced by bacterial lipopolysaccharide (LPS) in male BALB/cJ mice; assay type: in vivo; conditions: average; single dose 200 mg/kg i.p.; vs LPS challenged untreated animals
Protocol: For intraperitoneal administration (i.p.) compounds are dissolved in a final concentration of 10 mg/mL. The required amount of compound is first dissolved in dimethylsulfoxide (DMSO, Sigma) and then diluted with 0.5% (w/v) methyl-cellulose so that the final DMSO concentration is 5% (v/v). The obtained solution is applied in a dose volume of 0.2 mL per 10 g of animal. Therefore, the compound dose is 200 mg/kg.
Male BALB/cJ mice (Charles River, France), with an average weight of ˜30 g are randomly grouped (n=8 in testing group, 10 in positive control and 8 in negative control). Mice receive intraperitoneally (i.p.) a single dose of 200 mg/kg of test compound. Two hours after administration, 2 μg of LPS (from Escherichia coli serotype 0111:B4, Sigma), dissolved in sterile PBS in a volume of 60 μL, is intranasally administered to all experimental groups except the negative control group, which receive the same volume of vehicle (PBS). Animals are sacrificed approximately 24 hours after application of LPS in order to obtain bronchioalveolar lavage fluid (BALF), which is used to determine absolute number of cells and the percentage of neutrophils. Results are expressed as percentage decrease in total cell number and number of neutrophils in BALF of treated animals compared to positive control (LPS challenged, but untreated animals).

[3] = In vitro stability in human whole blood; assay type: in vitro ADME; conditions: 37° C., 2000 ng/mL, over 24 hours
Protocol: as §1

[4] = Stability in bio-relevant media (SGF, Fasted SIF, Fed SIF) at 37° C.; assay type: physicochemical; conditions: SGF pH 1.6, Fasted SIF pH 6.5, Fed SIF pH 5.0, 37° C., during 24 hours
Protocol: (§2) Stability in buffer solutions pH 2 to pH 8 at 25° C., and in bio-relevant media (SGF pH 1.6, Fasted SIF pH 6.5 and Fed SIF pH 5.0) at 37° C., during 24 hours is monitored. The samples are analysed by LC/MS.
SGF (Simulated Gastric Fluid) pH 1.6
Fasted SIF (Simulated Intestinal Fluid) pH 6.5
Fed SIF (Simulated Intestinal Fluid) pH 5.0
(§3) Flow: 0.3 mL/min Column temp.: 25° C. Sample temp.: 25° C. (for stability assay in buffer solutions) • 37° C. (for stability assay in bio-relevant media) Injector volume: 3 μL (without injection program) MS Conditions: Instrument HP MS API-ES, positive ion mode Mass Range: 150-1500 Fragmentor: 100 Gain: 1.0 Treshold: 150 Step size: 0.20 Gas Temperature: 350° C. Drying Gas Flow: 13 L/min Nebulizer Pressure: 35 psig Capillary Voltage Positive 4000 V • Negative 4000 V Sample Preparation: a) For Stability Assay in Buffer Solutions
b) For Stability Assay in Bio-Relevat Media
b1) For SGF Media pH 1.6 Testing:
Compounds are dissolved in SGF media pH 1.6 to give 0.2 mg/mL solution in case of compounds 1 and 2, and to give 0.1 mg/mL solution in case of compound 3. Solutions are then stored in a water bath at 37° C. and removed at the proper time point for LC/MS analysis. Before analysis, pH values of prepared sample solutions are checked and adjusted if necessary.
b2) For Fasted SIF Media pH 6.5 Testing:
(§4) Compounds are dissolved in Fasted SIF media pH 6.5 to give 2 mg/mL solution. Solutions are then dispatched into vials that are stored in a water bath at 37° C. and removed at the proper time point and diluted 10 times with CH3CN for LC/MS analysis. Before analysis, pH values of prepared sample solutions are checked and adjusted if necessary.
b3) For Fed SIF Media pH 5.0 Testing:
as §4, with “Fed” for “Fasted”, “5.0” for “6.5”, “40” for “10”

[5] = Stability in buffer solutions pH 2 to pH 8 at 25° C.; assay type: physicochemical; conditions: 25° C., during 24 hours
Protocol: as §2
Buffer Solutions and Physiologically Relevant Media Used in Stability Assay:
LC Conditions: Instrument HP1100
Column: Waters XBridge C18, 2.1×50 mm, 3.5 μm
Guard column: Waters XBridge C18, 2.1×10 mm, 3.5 μm
• A) 0.1% HCOOH/H2O • B) 0.1% HCOOH/CH3CN Gradient Timetable: […]
as §3
Compounds are dissolved in CH3CN to produce a 1 mg/mL stock solution. The stock solution is diluted to a concentration of 0.2 mg/mL (1 mL solution in 4 mL buffer) with appropriate buffer to produce a working solution.
Each solution at each pH is then dispatched into vials that are sealed and stored at room temperature in order to be analyzed at the proper time point. Before analysis, pH values of prepared sample solutions are checked and adjusted if neccessary.

[6] = test system: Staphylococcus aureus ATCC13709; assay: Anti-bacterial screening, broth microdilution MIC; assay type: cell-based; conditions: read-out: minimal inhibitory concentration (MIC)
Protocol: (§5) Whole-cell antimicrobial activity of compounds against clinically relevant bacteria (Staphylococcus aureus ATCC13709, Streptococcus pneumoniae ATCC49619, Streptococcus pyogenes ATCC700294, Moraxella catarrhalis ATCC23246, Haemophilus influenzae ATCC49247 and Escherichia coli ATCC25922) is determined by broth microdilution using the Clinical and Laboratory Standards (CLSI) recommended procedure (Document M7-[…], Methods for Dilution Susceptibility Tests for Bacteria that Grow Aerobically). Compounds are dissolved in DMSO to produce a 50 mM stock solution. The stock solution is diluted to a concentration of 128 μg/mL in appropriate media (Haemophilus Test Medium for Haemophilus influenzae, Mueller-Hinton Broth for Staphylococcus aureus, Moraxella catarrhalis and Escherichia coli, and Mueller-Hinton Broth supplemented with 5% horse serum for Streptococcus pyogenes and Streptococcus pneumoniae) to produce a working solution. A Tecan Genesis 150 Workstation (Tecan Group Ltd. Mannedorf, Switzerland) is used to prepare serial two-fold dilutions (50 μL aliquots) of the working solution in a U-shape bottom 96 well microtitre plate. After the compounds are diluted, a 50 μL aliquot of the test isolate ( 1×10^6 cfu/ml) is added to each well of the microtitre plate. The final test concentrations range from 0.125-64 μg/mL. Inoculated plates are incubated at 35° C. in ambient air for 18 to 24 hours. The minimum inhibitory concentration (MIC) is determined as the lowest concentration of compound that inhibited visible growth.

[7] = test system: Haemophilus influenzae ATCC49247; assay: Anti-bacterial screening, broth microdilution MIC; assay type: cell-based; conditions: read-out: minimal inhibitory concentration (MIC)
Protocol: as §5

[8] = test system: Streptococcus pyogenes ATCC700294; assay: Anti-bacterial screening, broth microdilution MIC; assay type: cell-based; conditions: read-out: minimal inhibitory concentration (MIC)
Protocol: as §5

[9] = test system: Moraxella catarrhalis ATCC23246; assay: Anti-bacterial screening, broth microdilution MIC; assay type: cell-based; conditions: read-out: minimal inhibitory concentration (MIC)
Protocol: as §5

[10] = test system: Escherichia coli ATCC25922; assay: Anti-bacterial screening, broth microdilution MIC; assay type: cell-based; conditions: read-out: minimal inhibitory concentration (MIC)
Protocol: as §5

[11] = test system: Streptococcus pneumoniae ATCC49619; assay: Anti-bacterial screening, broth microdilution MIC; assay type: cell-based; conditions: read-out: minimal inhibitory concentration (MIC)
Protocol: as §5

CC[C@H]1OC(=O)[C@H](C)[C@@H](O[C@H]2C[C@@](C)(OC)[C@@H](OC(=O)CN(CC)CC)[C@H](C)O2)[C@H](C)[C@@H](O[C@@H]2O[C@H](C)C[C@H](NC)[C@H]2O)[C@](C)(OC)C[C@@H](C)C(=O)N[C@H](C)[C@@H](O)[C@]1(C)O [Example 1, 3′-N-Demethyl-4″-O-(2-diethylaminoethanoyl)-6-O-methyl-9a-aza-9a-homoerythromycin A]
stability in plasma [1]: stable | inhibition of the number of neutrophils in BALF [2]: more than 89% | stability in whole blood [3]: stable | stability in all three bio relevant media [4]: Examples 1 and 3 showed stability in all three bio relevant media. | stability in buffers pH 2 to 8 [5]: showed stability | MIC [6]: > 64 µg/mL | MIC [7]: > 64 µg/mL | MIC [8]: > 64 µg/mL | MIC [9]: > 64 µg/mL | MIC [10]: > 64 µg/mL | MIC [11]: > 64 µg/mL
